Experimental data as given in patent US8927587B2, “Chemical compounds” (Pfizer Limited, priority 2012, dated 2015).
pIC50: −log10 of the molar value.

What follows are molecules tested against T1, hNav1.8 (Homo sapiens, UniProt Q9Y5Y9) (assay: hNav1.8 whole-cell patch-clamp electrophysiology (conventional or PatchXpress 7000) in stably transfected HEK cells). Conditions: estimated IC50 calculated from single point % inhibition; HEK cells expressing hNav1.8; 8 sec prepulse to V1/2, 20 msec step to 0 mV; average of replicates; read-out: Nav1.8 EIC50.
T1 construct: host or cells: HEK cells, stably transfected
T1 sequence (Q9Y5Y9 whole entry): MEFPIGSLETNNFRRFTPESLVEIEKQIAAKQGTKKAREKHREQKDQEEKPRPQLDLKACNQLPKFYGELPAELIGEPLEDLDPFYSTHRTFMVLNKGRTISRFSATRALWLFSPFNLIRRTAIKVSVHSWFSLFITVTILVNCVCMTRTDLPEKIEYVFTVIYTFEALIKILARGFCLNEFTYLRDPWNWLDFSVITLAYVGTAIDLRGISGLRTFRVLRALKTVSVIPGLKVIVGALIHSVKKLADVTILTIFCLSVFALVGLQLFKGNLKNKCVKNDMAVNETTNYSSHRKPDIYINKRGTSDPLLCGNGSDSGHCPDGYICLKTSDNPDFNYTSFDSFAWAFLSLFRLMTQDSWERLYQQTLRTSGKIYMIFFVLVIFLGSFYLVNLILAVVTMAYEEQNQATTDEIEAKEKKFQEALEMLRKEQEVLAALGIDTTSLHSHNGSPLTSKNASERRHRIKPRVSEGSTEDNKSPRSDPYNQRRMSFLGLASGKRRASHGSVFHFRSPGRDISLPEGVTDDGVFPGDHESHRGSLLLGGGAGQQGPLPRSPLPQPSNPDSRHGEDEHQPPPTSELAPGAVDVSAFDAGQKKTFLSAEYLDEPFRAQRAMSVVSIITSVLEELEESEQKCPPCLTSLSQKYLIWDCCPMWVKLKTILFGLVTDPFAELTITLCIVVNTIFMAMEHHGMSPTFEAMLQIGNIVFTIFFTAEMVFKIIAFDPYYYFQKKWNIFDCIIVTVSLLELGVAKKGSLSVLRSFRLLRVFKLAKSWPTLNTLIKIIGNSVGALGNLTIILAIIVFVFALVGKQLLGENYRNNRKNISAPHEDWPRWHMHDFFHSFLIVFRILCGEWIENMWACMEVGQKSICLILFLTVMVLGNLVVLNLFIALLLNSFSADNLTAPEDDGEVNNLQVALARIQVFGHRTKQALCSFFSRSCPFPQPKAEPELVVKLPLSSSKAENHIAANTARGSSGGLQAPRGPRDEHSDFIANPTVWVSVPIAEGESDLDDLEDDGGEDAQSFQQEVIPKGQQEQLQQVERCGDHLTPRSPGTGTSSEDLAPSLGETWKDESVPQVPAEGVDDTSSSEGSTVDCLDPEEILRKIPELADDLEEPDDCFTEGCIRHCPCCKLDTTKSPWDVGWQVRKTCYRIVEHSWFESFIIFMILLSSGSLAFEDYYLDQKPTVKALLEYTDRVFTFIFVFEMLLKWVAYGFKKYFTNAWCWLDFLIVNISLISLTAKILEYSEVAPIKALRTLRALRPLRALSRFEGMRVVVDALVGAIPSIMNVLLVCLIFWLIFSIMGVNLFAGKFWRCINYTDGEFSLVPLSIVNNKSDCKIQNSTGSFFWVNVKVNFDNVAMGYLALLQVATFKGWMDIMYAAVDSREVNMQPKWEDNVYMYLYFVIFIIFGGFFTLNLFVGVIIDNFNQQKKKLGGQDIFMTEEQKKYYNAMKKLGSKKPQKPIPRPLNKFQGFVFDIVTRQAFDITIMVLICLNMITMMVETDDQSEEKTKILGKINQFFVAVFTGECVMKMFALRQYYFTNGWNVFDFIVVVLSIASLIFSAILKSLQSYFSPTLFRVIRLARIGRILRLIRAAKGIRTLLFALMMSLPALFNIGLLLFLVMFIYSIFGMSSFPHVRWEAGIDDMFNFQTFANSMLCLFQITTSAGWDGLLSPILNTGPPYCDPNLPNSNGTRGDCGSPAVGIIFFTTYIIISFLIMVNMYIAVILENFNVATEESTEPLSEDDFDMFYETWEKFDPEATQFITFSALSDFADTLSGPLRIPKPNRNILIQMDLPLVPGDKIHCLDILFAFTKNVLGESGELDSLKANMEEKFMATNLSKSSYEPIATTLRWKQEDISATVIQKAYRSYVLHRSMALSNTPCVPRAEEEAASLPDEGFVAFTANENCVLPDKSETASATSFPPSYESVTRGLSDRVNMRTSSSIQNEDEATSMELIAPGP
Format: cell-based
Method in brief: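 Whole-cell voltage clamp at 22-24 °C in HEK cells stably expressing hNav1.8, manually or on PatchXpress. Current evoked by 20 msec step to 0 mV after 8 s prepulse to each cell's inactivation V1/2; single-concentration % inhibition converted to estimated IC50, using only 20-80% inhibition values, averaged over replicates.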

pIC50	Structure (SMILES)
6.97	C[C@@H](O)[C@H](N)c1cn2cc(-c3ccc(C#N)cc3)ccc2n1 [Example 154, 4-{2-[(1R,2R)-1-Amino-2-hydroxypropyl]imidazo[1,2-a]pyridin-6-yl}benzonitrile]
6.68	CC(C)(C)c1ccc2nc([C@@H](N)CO)cn2c1 [Example 155, (2R)-2-Amino-2-(6-tert-butylimidazo[1,2-a]pyridin-2-yl)ethanol]
7.26	C[C@@H](C(N)=O)[C@H](N)c1cn2cc(-c3ccc(C#N)cc3)ccc2n1 [Example 156, (2R,3S)-3-Amino-3-[6-(4-cyanophenyl)imidazo[1,2-a]pyridin-2-yl]-2-methylpropanamide]
7.35	C[C@@H](C(N)=O)[C@H](N)c1cn2cc(C(C)(C)C)ccc2n1 [Example 157, (2R,3S)-3-Amino-3-(6-tert-butylimidazo[1,2-a]pyridin-2-yl)-2-methylpropanamide]
